Laboratory results taken from ChEMBL document CHEMBL4613260, “NF-κB Inhibitory and Antibacterial Helvolic and Fumagillin Derivatives from Aspergillus terreus” (J Nat Prod, 2020).
Calls of active or inactive are those of the source. The rule behind the calls is not given here.

Assays:
[1] = system: A2780; experiment: Antiproliferative activity against human A2780 cells at 40 uM after 72 hrs by Cyquant assay; format: functional, cell-based
[2] = system: HEK293; experiment: Cytotoxicity against HEK293 cells at 50 uM by SRB assay; format: cell-based; conditions: human, hek293, 50 µM
[3] = system: Staphylococcus aureus; experiment: Antibacterial activity against Staphylococcus aureus ATCC 43300 after 24 hrs by resazurin dye based broth microdilution method; format: functional; conditions: ATCC 43300, 24 h
[4] = system: Escherichia coli; experiment: Antibacterial activity against Escherichia coli ATCC 9637 after 24 hrs by resazurin dye based broth microdilution method; format: functional; conditions: W ATCC 9637, 24 h
[5] = system: Staphylococcus aureus; experiment: Antibacterial activity against Staphylococcus aureus ATCC 43300 at 50 ug/ml after 24 hrs by resazurin dye based broth microdilution method; format: functional, organism-based
[6] = system: Escherichia coli; experiment: Antibacterial activity against Escherichia coli ATCC 9637 at 50 ug/ml after 24 hrs by resazurin dye based broth microdilution method; format: functional, organism-based; conditions: W ATCC 9637
[7] = Inhibition of TNFalpha-induced NFkappaB activation in human HEK293 cells after 6 hrs by luciferase assay; format: cell-based; conditions: HEK293, 6 h

MIC [3] | MIC [4] | IC50 [7] [µM] | SMILES | Activity [1] | Activity [2] | Activity [5] | Activity [6]
12.5 µg/mL | 25 µg/mL | – | CC(=O)O[C@H]1C[C@@]2(C)[C@@H](CC[C@H]3[C@@]4(C)CCC(=O)[C@@H](C)[C@@H]4[C@H](O)C(=O)[C@@]32C)/C1=C(\CCC=C(C)C)C(=O)O | inactive | Non-Toxic | – | –
– | – | – | CO[C@@H]1[C@H](OC(=O)/C=C/C=C/C=C/C(=O)O)CC[C@]2(O)CO[C@](C)([C@H](O)CC=C(C)C)[C@@H]12 | inactive | Non-Toxic | inactive | inactive
– | – | 5.3 | Cc1ccc(S(=O)(=O)N[C@@H](Cc2ccccc2)C(=O)CCl)cc1 [TPCK] | – | – | – | –
6.25 µg/mL | 25 µg/mL | – | CC(=O)O[C@H]1C[C@@]2(C)[C@@H](CC[C@H]3[C@@]4(C)CCC(=O)[C@@H](C)[C@@H]4C[C@@H](O)[C@@]32C)/C1=C(\CCC=C(C)C)C(=O)O | inactive | Non-Toxic | – | –
19.4 µM | 9.66 µM | – | O=C(N[C@H](CO)[C@H](O)c1ccc([N+](=O)[O-])cc1)C(Cl)Cl [CHLORAMPHENICOL] | – | – | – | –
– | – | 11 | Cc1ccc(S(=O)(=O)/C=C/C#N)cc1 | – | – | – | –
– | – | – | CO[C@@H]1[C@H](OC(=O)/C=C/C=C/C=C/C=C/C(=O)O)CC[C@]2(CO2)[C@H]1[C@@]1(C)O[C@@H]1CC=C(C)C [FUMAGILLIN] | inactive | Non-Toxic | inactive | inactive
6.25 µg/mL | 25 µg/mL | – | CC(=O)O[C@H]1C[C@@]2(C)[C@@H](CC[C@H]3[C@@]4(C)CCC(=O)[C@@H](C)[C@@H]4CC[C@@]32C)/C1=C(\CCC=C(C)C)C(=O)O | inactive | Non-Toxic | – | –
50 µg/mL | 25 µg/mL | 6.5 | CC(=O)O[C@H]1C[C@@]2(C)[C@@H](CC[C@H]3[C@@]4(C)CCC(=O)[C@@H](C)[C@@H]4[C@H](OC(C)=O)C(=O)[C@@]32C)/C1=C(\CCC=C(C)C)C(=O)O | inactive | Non-Toxic | – | –

SMILES | MIC [3] | MIC [4] | IC50 [7] [µM] | Activity [1] | Activity [2] | Activity [5] | Activity [6]
CC(=O)O[C@H]1C[C@@]2(C)[C@@H](CC[C@H]3[C@@]4(C)C=CC(=O)[C@@H](C)[C@@H]4[C@H](OC(C)=O)C(=O)[C@@]32C)/C1=C(\CCC=C(C)C)C(=O)O [HELVOLIC ACID] | 12.5 µg/mL | 3.12 µg/mL | 2.7 | inactive | Non-Toxic | – | –
